Experimental data reported in patent US20160075682A1, “INHIBITORS OF NICOTINAMIDE PHOSPHORIBOSYLTRANSFERASE, COMPOSITIONS, PRODUCTS AND USES THEREOF” (UNIVERSITÀ DEGLI STUDI DEL PIEMONTE ORIENTALE "AMEDEO …, priority 2013, published 2016).

Tests used:
[1] = test system: SH-SY5Y, HeLa; test: MTT cell proliferation assay and trypan blue count (cell viability); assay type: cell-based; conditions: cells treated for 48 and 72 hours; read-out: IC50 values (inhibition of cellular proliferation, MTT assay and trypan blue assay)
Description: Cell based assays were used to evaluate the possible cytotoxic effects of some compounds. To measure cytotoxic effects two different methods were used, a MTT cell proliferation assay and trypan blue count.
The Trypan blue assay is used to determine the number of viable cells present in a cell suspension. […] Briefly, 8×10^5 cells (SH-SY5Y, HeLa; obtained from ATCC, LGC standards, Sesto San Giovanni) were seeded in 24-well plates and treated for 48 and 72 hours. After the treatments, cells were stained with trypan blue and counted.
To analyze cell viability was used the colorimetric 3-(4,5-dimethylthiazol-2-yl)-2,5-diphenyltetrazolium bromide (MTT) method. The assay is based on the cleavage of the yellow tetrazolium salt MTT to purple formazan crystals by metabolic active cells. Since reduction of MTT can only occur in metabolically active cells, the level of activity is a measure of the viability of cells and conversely the cytotoxic effects of various treatments. Briefly, 8×10^5 cells (SH-SY5Y, code number CRL-2266; and HeLa, code number CCL-2) were seeded in 24-well plates and treated for 48 and 72 hours. Compounds were dissolved in DMSO and were added to the cells to give a final DMSO concentration no greater than 0.5%. Cells were washed once in Locke buffer and 300 μl of MTT (250 μg/ml in Locke buffer) were added before returning the cells to the incubator for 1 h to allow the formation of the purple formazan crystals. After 1 h, 600 μl of isopropanol/0.1 M HCl were added to each well, and the absorbance was read at 570 nm in a plate reader (Victor3V, PerkinElmer Life Sciences). For some compounds a dose response curve and IC50 for the effects on cell viability and proliferation were calculated. Cell lines used were originally purchased from ATCC (LGC standards. Sesto San Giovanni).
To evaluate the ability of each compound to inhibit cellular proliferation, cells were seeded in 24-well plates and treated for 48 and 72 hours. After the treatments the MTT assay and trypan blue assay were performed.

[2] = target: T1, NAMPT (Homo sapiens, UniProt P43490); test: Direct inhibition of NAMPT enzymatic activity (Cyclex NAMPT colorimetric Assay Kit); assay type: biochemical; conditions: as assessed with a cycling assay
T1 construct: endogenous in cells; host or cells: SH-SY5Y and HeLa
T1 sequence (P43490 whole entry): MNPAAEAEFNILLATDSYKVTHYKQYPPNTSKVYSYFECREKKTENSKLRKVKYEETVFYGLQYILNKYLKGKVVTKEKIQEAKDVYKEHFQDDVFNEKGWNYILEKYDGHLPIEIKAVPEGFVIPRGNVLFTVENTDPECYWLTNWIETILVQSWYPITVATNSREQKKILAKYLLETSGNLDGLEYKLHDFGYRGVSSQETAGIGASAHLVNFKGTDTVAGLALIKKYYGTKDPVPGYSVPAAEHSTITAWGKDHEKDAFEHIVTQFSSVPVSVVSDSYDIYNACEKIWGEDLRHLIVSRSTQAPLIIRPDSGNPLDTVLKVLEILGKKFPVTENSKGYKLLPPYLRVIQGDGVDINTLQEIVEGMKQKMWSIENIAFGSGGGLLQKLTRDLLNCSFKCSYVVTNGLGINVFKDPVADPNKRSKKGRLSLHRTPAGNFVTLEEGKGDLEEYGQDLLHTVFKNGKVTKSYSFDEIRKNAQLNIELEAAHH
Description: Determination of the direct activity of compounds on NAMPT was performed using a commercial kit, Cyclex NAMPT colorimetric Assay Kit.

| Structure (SMILES) | IC50 [1] [nM] | inhibition of the enzymatic activity of NAMPT [2] | melting point [°C] |
| --- | --- | --- | --- |
| c1ccc(-c2ccccc2-c2cn(CCCCCCCCn3cc(-c4cccnc4)nn3)nn2)cc1 [3-(1-(8-(4-([1,1′-byphenyl]-2-yl)-1H-1,2,3-triazol-1-yl)octyl)-1H-1,2,3-triazol-4-yl)pyridine] | < 300 | – | 136 to 140 |
| c1ccc(OCCCCCCCn2cc(-c3cccnc3)nn2)cc1 [3-(1-(7-phenoxyheptyl)-1H-1,2,3-triazol-4-yl)pyridine] | – | – | 90.5 to 91 |
| c1ccc(-c2ccccc2OCCCCCCCn2cc(-c3cccnc3)nn2)cc1 [3-(1-(7-([1,1′-biphenyl]-2-yloxy)heptyl)-1H-1,2,3-triazol-4-yl)pyridine] | < 300 | able to inhibit | – |
| O=C(NCCCCCCCn1cc(-c2cccnc2)nn1)c1ccccc1I [2-iodo-N-(7-(4-(pyridin-3-yl)-1H-1,2,3-triazol-1-yl)heptyl)benzamide] | < 300 | – | 106 to 108 |
| c1ccc(-c2cn(CCCCCCCn3cc(-c4cccnc4)nn3)nn2)cc1 [3-(1-(7-(4-phenyl-1H-1,2,3-triazol-1-yl)heptyl)-1H-1,2,3-triazol-4-yl)pyridine] | – | – | 143 to 144 |
| c1ccc(-c2ccccc2OCc2ccc(CCn3cc(-c4cccnc4)nn3)cc2)cc1 [3-(1-(4-(([1,1′-biphenyl]-2-yloxy)methyl)phenethyl)-1H-1,2,3-triazol-4-yl)pyridine] | < 300 | – | 136 to 137 |
| O=C(O)c1ccc(-c2ccccc2C(=O)NCCCCCCCn2cc(-c3cccnc3)nn2)cc1 [2′-((7-(4-(pyridin-3-yl)-1H-1,2,3-triazol-1-yl)heptyl)carbamoyl)-[1,1′-biphenyl]-4-carboxylic acid] | < 300 | – | – |
| c1ccc(-c2ccccc2-c2cn(CCCCCCn3cc(-c4cccnc4)nn3)nn2)cc1 [3-(1-(6-(4-([1,1′-byphenyl]-2-yl)-1H-1,2,3-triazol-1-yl)hexyl)-1H-1,2,3-triazol-4-yl)pyridine] | < 300 | – | 139 to 140 |
| c1ccc(OCCCCCCn2cc(-c3cccnc3)nn2)cc1 [3-(1-(6-phenoxyhexyl)-1H-1,2,3-triazol-4-yl)pyridine] | – | – | 74 to 75 |
| O=C(NCCCCCCCCn1cc(-c2cccnc2)nn1)Nc1ccccc1-c1ccccc1 [1-([1,1′-biphenyl]-2-il)-3-(8-(4-(pyridin-3-yl)-1H-1,2,3-triazol-1-yl)octyl)urea] | < 300 | – | 90 to 95 |
| O=C(O)c1ccc(-c2ccccc2OCCCCCCn2cc(-c3cccnc3)nn2)cc1 [2′-((6-(4-(pyridin-3-yl)-1H-1,2,3-triazol-1-yl)hexyl)oxy)-[1,1′-biphenyl]-4-carboxylic acid] | < 300 | – | – |
| O=S(=O)(NCCCCCCn1cc(-c2cccnc2)nn1)c1ccccc1Br [2-bromo-N-(6-(4-(pyridin-3-yl)-1H-1,2,3-triazol-1-yl)hexyl)benzene sulfonamide] | < 300 | – | – |
| O=S(=O)(NCCCCCCCCn1cc(-c2cccnc2)nn1)c1ccccc1Br [2-bromo-N-(8-(4-(pyridin-3-yl)-1H-1,2,3-triazol-1-yl)octyl)benzene sulfonamide] | < 300 | – | – |
| Cc1ccccc1-c1ccccc1OCCCCCCn1cc(-c2cccnc2)nn1 [3-(1-(6-((2′-methyl-[1,1′-biphenyl]-2-yl)oxy)hexyl)-1H-1,2,3-triazol-4-yl)pyridine] | < 300 | – | – |
| O=C(O)c1cccc(-c2ccccc2OCCCCCCn2cc(-c3cccnc3)nn2)c1 [2′-((6-(4-(pyridin-3-yl)-1H-1,2,3-triazol-1-yl)hexyl)oxy)-[1,1′-biphenyl]-3-carboxylic acid] | < 300 | – | – |
| c1ccc(-c2ccccc2-c2cn(CCc3ccc(Cn4cc(-c5cccnc5)nn4)cc3)nn2)cc1 [3-(1-(4-(2-(4-([1,1′-biphenyl]-2-yl)-1H-1,2,3-triazol-1-yl)ethyl)benzyl)-1H-1,2,3-triazol-4-yl)pyridine] | < 300 | – | 139 to 141 |
| c1ccc(-c2cn(CCCCCCn3cc(-c4cccnc4)nn3)nn2)cc1 [3-(1-(6-(4-phenyl-1H-1,2,3-triazol-1-yl)hexyl)-1H-1,2,3-triazol-4-yl)pyridine] | – | – | 172 to 173 |
| O=S(=O)(NCCCCCCCn1cc(-c2cccnc2)nn1)c1ccccc1Br [2-bromo-N-(7-(4-(pyridin-3-yl)-1H-1,2,3-triazol-1-yl)heptyl)benzene sulfonamide] | < 300 | – | – |
| O=S(=O)(NCCc1ccc(Cn2cc(-c3cccnc3)nn2)cc1)c1ccccc1Br [2-bromo-N-(4-((4-(pyridin-3-yl)-1H-1,2,3-triazol-1-yl)methyl)phenethyl)benzenesulfonamide] | < 300 | – | – |

Second part, the molecule after the results:

| IC50 [1] [nM] | inhibition of the enzymatic activity of NAMPT [2] | melting point [°C] | Structure (SMILES) |
| --- | --- | --- | --- |
| < 300 | able to inhibit | – | O=C(Nc1ccccc1-c1ccccc1)OCCCCCCCn1cc(-c2cccnc2)nn1 [7-(4-(pyridin-3-yl)-1H-1,2,3-triazol-1-yl)heptyl[1,1′-biphenyl]-2-ylcarbamate] |
| < 300 | – | 81 to 85 | O=C(Nc1ccccc1-c1ccccc1)OCCCCCCCCn1cc(-c2cccnc2)nn1 [8-(4-(pyridin-3-yl)-1H-1,2,3-triazol-1-yl)octyl[1,1′-biphenyl]-2-ylcarbamate] |
| < 300 | – | – | c1ccc(-c2ccccc2CNCCCCCCCCn2cc(-c3cccnc3)nn2)cc1 [N-([1,1′-biphenyl]-2-ylmethyl)-8-(4-(pyridin-3-yl)-1H-1,2,3-triazol-1-yl)octan-1-amine] |
| < 300 | able to inhibit | – | O=C(NCCCCCCn1cc(-c2cccnc2)nn1)c1ccccc1-c1ccccc1 [N-(6-(4-(pyridin-3-yl)-1H-1,2,3-triazol-1-yl)hexyl)-[1,1′-biphenyl]-2-carboxamide] |
| < 300 | – | – | O=S(=O)(NCCCCCCCn1cc(-c2cccnc2)nn1)c1ccccc1-c1ccccc1 [N-(7-(4-(pyridin-3-yl)-1H-1,2,3-triazol-1-yl)heptyl) biphenyl-2-sulfonamide] |
| < 300 | – | – | O=S(=O)(NCCc1ccc(Cn2cc(-c3cccnc3)nn2)cc1)c1ccccc1-c1ccccc1 [N-(4-((4-(pyridin-3-yl)-1H-1,2,3-triazol-1-yl)methyl)phenethyl)-[1,1′-biphenyl]-sulfonamide] |
| < 300 | – | 55 to 58 | c1ccc(-c2ccccc2CNCCCCCCn2cc(-c3cccnc3)nn2)cc1 [N-([1,1′-biphenyl]-2-ylmethyl)-6-(4-(pyridin-3-yl)-1H-1,2,3-triazol-1-yl)hexan-1-amine] |
| < 300 | – | – | O=S(=O)(NCCCCCCn1cc(-c2cccnc2)nn1)c1ccccc1-c1ccccc1 [N-(6-(4-(pyridin-3-yl)-1H-1,2,3-triazol-1-yl)hexyl) biphenyl-2-sulfonamide] |
| – | – | 123 to 124 | O=C(NCCCCCCCn1cc(-c2cccnc2)nn1)c1ccccc1 [N-(7-(4-(pyridin-3-yl)-1H-1,2,3-triazol-1-yl)heptyl)benzamide] |
| < 300 | – | 202 to 203 | O=C(NCCCc1ccc(-n2cc(-c3cccnc3)nn2)cc1)c1ccccc1-c1ccccc1 [N-(3-(4-(4-(pyridin-3-yl)-1H-1,2,3-triazol-1-yl)phenyl)propyl)-[1,1′-biphenyl]-2-carboxamide] |
| < 300 | – | 86 to 91 | c1ccc(-c2ccccc2CNCCCCCCCn2cc(-c3cccnc3)nn2)cc1 [N-([1,1′-biphenyl]-2-ylmethyl)-7-(4-(pyridin-3-yl)-1H-1,2,3-triazol-1-yl)heptan-1-amine] |
| < 300 | – | 131 to 132 | O=C(Nc1ccccc1-c1ccccc1)OCCc1ccc(Cn2cc(-c3cccnc3)nn2)cc1 [4-((4-(pyridin-3-yl)-1H-1,2,3-triazol-1-yl)methyl)phenethyl[1,1′-biphenyl]-2-ylcarbamate] |
| – | – | 100 to 101 | NC(=O)c1ccccc1-c1ccccc1C(=O)NCCCCCCCn1cc(-c2cccnc2)nn1 [N^2-(7-(4-(pyridin-3-yl)-1H-1,2,3-triazol-1-yl)heptyl)-[1,1′-biphenyl]-2,2′-dicarboxamide] |
| < 300 | – | – | c1ccc(-c2ccccc2CNCCc2ccc(Cn3cc(-c4cccnc4)nn3)cc2)cc1 [N-([1,1′-biphenyl]-ylmethyl)-2-(4-((4-(pyridin-3-yl)-1H-1,2,3-triazol-1-yl)methy)phenyl)ethanamine] |
| – | – | 102 to 103 | c1ccc(OCCCCCCCCn2cc(-c3cccnc3)nn2)cc1 [3-(1-(8-phenoxyoctyl)-1H-1,2,3-triazol-4-yl)pyridine] |
| < 300 | – | 204 to 205 | O=C(NCc1ccc(CCn2cc(-c3cccnc3)nn2)cc1)c1ccccc1-c1ccccc1 [N-(4-(2-(4-(pyridin-3-yl)-1H-1,2,3-triazol-1-yl)ethyl)benzyl)-[1,1′-biphenyl]-2-carboxamide] |
